Data published in the OligoGym collection.
HELM strings list units from the 5' end as sugar, base in round brackets, then linkage (d deoxyribose, r ribose, m 2'-O-methyl, p phosphodiester). Strings are as the collection lists them; they lack the last nucleoside at the 3' end of the tested compound. [moe] = 2'-O-(2-methoxyethyl) (MOE); [sp] = phosphorothioate linkage; [m5C] = 5-methylcytosine

Biological target: UBE3A-ATS
Assay: mouse, dose not given
Conditions: ASO

Row | Substance | 3 h FOB score [score 0-7]
1 | RNA1{[moe](A)[sp].[moe](T)p.[moe]([m5C])p.[moe](A)p.[moe](G)p.d(G)[sp].d(G)[sp].d([m5C])[sp].d(A)[sp].d([m5C])[sp].d(A)[sp].d(T)[sp].d(G)[sp].d(G)[sp].d(A)[sp].[moe](G)p.[moe](T)p.[moe](T)[sp].[moe](G)}$$$$ (last 3' nucleoside missing) | 6.8
2 | RNA1{[moe](A)[sp].[moe](T)p.[moe]([m5C])p.[moe](A)p.[moe](T)p.d(G)[sp].d(T)[sp].d(G)[sp].d([m5C])[sp].d(A)[sp].d(T)[sp].d(A)[sp].d([m5C])[sp].d([m5C])[sp].d([m5C])[sp].[moe](A)p.[moe](G)p.[moe](G)[sp].[moe](G)}$$$$ (last 3' nucleoside missing) | 0
3 | RNA1{[moe](A)[sp].[moe](T)p.[moe]([m5C])p.[moe](A)p.[moe]([m5C])p.d(A)[sp].d(T)[sp].d(T)[sp].d(A)[sp].d([m5C])[sp].d([m5C])[sp].d([m5C])[sp].d(A)[sp].d(T)[sp].d([m5C])[sp].[moe]([m5C])p.[moe](G)p.[moe](T)[sp].[moe](T)}$$$$ (last 3' nucleoside missing) | 0
4 | RNA1{[moe](A)[sp].[moe](T)p.[moe]([m5C])p.[moe](T)p.[moe](G)p.d(G)[sp].d(T)[sp].d([m5C])[sp].d(T)[sp].d(T)[sp].d(G)[sp].d(G)[sp].d(G)[sp].d(A)[sp].d(T)[sp].[moe](T)p.[moe](A)p.[moe](T)[sp].[moe](A)}$$$$ (last 3' nucleoside missing) | 4.8
5 | RNA1{[moe](A)[sp].[moe](T)p.[moe]([m5C])p.[moe](T)p.[moe]([m5C])p.d(G)[sp].d(G)[sp].d(G)[sp].d(T)[sp].d(A)[sp].d(T)[sp].d(A)[sp].d(T)[sp].d(A)[sp].d(A)[sp].[moe](A)p.[moe](T)p.[moe](T)[sp].[moe](A)}$$$$ (last 3' nucleoside missing) | 0
6 | RNA1{[moe](A)[sp].[moe]([m5C])[sp].[moe](A)[sp].[moe](T)[sp].[moe](T)[sp].d(T)[sp].d([m5C])[sp].d(T)[sp].d(T)[sp].d(A)[sp].d(G)[sp].d(T)[sp].d(T)[sp].d(G)[sp].d(A)[sp].[moe](A)[sp].[moe]([m5C])[sp].[moe](A)[sp].[moe](G)}$$$$ (last 3' nucleoside missing) | 6.5
7 | RNA1{[moe](A)[sp].[moe]([m5C])p.[moe](A)p.[moe](T)p.[moe](A)p.d([m5C])[sp].d(T)[sp].d(T)[sp].d(G)[sp].d(G)[sp].d(T)[sp].d(T)[sp].d(G)[sp].d([m5C])[sp].d(A)[sp].[moe](G)p.[moe](A)p.[moe]([m5C])[sp].[moe](G)}$$$$ (last 3' nucleoside missing) | 4.8
8 | RNA1{[moe](A)[sp].[moe]([m5C])p.[moe](A)p.[moe]([m5C])p.[moe](T)p.d(T)[sp].d(T)[sp].d([m5C])[sp].d(A)[sp].d(T)[sp].d([m5C])[sp].d(A)[sp].d(G)[sp].d(T)[sp].d(T)[sp].[moe](A)p.[moe](G)p.[moe](T)[sp].[moe]([m5C])}$$$$ (last 3' nucleoside missing) | 1
9 | RNA1{[moe](A)[sp].[moe]([m5C])p.[moe](G)p.[moe]([m5C])[sp].d(A)[sp].d(A)[sp].d(T)[sp].d(G)[sp].d(T)[sp].d(A)[sp].d(T)[sp].d([m5C])[sp].[moe](A)p.[moe](G)p.[moe](G)p.[moe]([m5C])[sp].[moe](A)}$$$$ (last 3' nucleoside missing) | 1
10 | RNA1{[moe](A)[sp].[moe]([m5C])p.[moe](G)p.[moe]([m5C])p.[moe](A)[sp].d(A)[sp].d(T)[sp].d(G)[sp].d(T)[sp].d(A)[sp].d(T)[sp].d([m5C])[sp].d(A)[sp].[moe](G)p.[moe](G)p.[moe]([m5C])[sp].[moe](A)}$$$$ (last 3' nucleoside missing) | 2.3
11 | RNA1{[moe](A)[sp].[moe]([m5C])p.[moe](G)p.[moe]([m5C])p.[moe](A)p.[moe](A)[sp].d(T)[sp].d(G)[sp].d(T)[sp].d(A)[sp].d(T)[sp].d([m5C])[sp].d(A)[sp].d(G)[sp].[moe](G)p.[moe]([m5C])[sp].[moe](A)}$$$$ (last 3' nucleoside missing) | 0
12 | RNA1{[moe](A)[sp].[moe]([m5C])p.[moe](T)p.[moe](A)p.[moe](T)p.d([m5C])[sp].d([m5C])[sp].d(T)[sp].d(G)[sp].d([m5C])[sp].d(A)[sp].d(T)[sp].d([m5C])[sp].d([m5C])[sp].d(G)[sp].[moe](A)p.[moe](G)p.[moe](G)[sp].[moe]([m5C])}$$$$ (last 3' nucleoside missing) | 1
13 | RNA1{[moe](A)[sp].[moe]([m5C])p.[moe](T)p.[moe](G)p.[moe](G)p.d([m5C])[sp].d(A)[sp].d(T)[sp].d(A)[sp].d(T)[sp].d(T)[sp].d([m5C])[sp].d([m5C])[sp].d(G)[sp].d(A)[sp].[moe](T)p.[moe](T)p.[moe](A)[sp].[moe](T)}$$$$ (last 3' nucleoside missing) | 3
14 | RNA1{[moe](A)[sp].[moe]([m5C])p.[moe](T)p.[moe](G)p.[moe](T)p.d(T)[sp].d(A)[sp].d([m5C])[sp].d([m5C])[sp].d(A)[sp].d(A)[sp].d(G)[sp].d(A)[sp].d([m5C])[sp].d(T)[sp].[moe](T)p.[moe]([m5C])p.[moe](A)[sp].[moe](G)}$$$$ (last 3' nucleoside missing) | 3.8
15 | RNA1{[moe](A)[sp].[moe]([m5C])p.[moe](T)p.[moe](G)p.[moe]([m5C])p.[moe](T)p.d(T)[sp].d([m5C])[sp].d(A)[sp].d([m5C])[sp].d([m5C])[sp].d(A)[sp].d(T)[sp].d(T)[sp].d(T)[sp].d(T)[sp].[moe](G)p.[moe](A)[sp].[moe]([m5C])}$$$$ (last 3' nucleoside missing) | 1
16 | RNA1{[moe](A)[sp].[moe]([m5C])p.[moe](T)p.[moe](G)p.[moe]([m5C])p.d(T)[sp].d(T)[sp].d([m5C])[sp].d(A)[sp].d([m5C])[sp].d([m5C])[sp].d(A)[sp].d(T)[sp].d(T)[sp].d(T)[sp].[moe](T)p.[moe](G)p.[moe](A)[sp].[moe]([m5C])}$$$$ (last 3' nucleoside missing) | 1.7
17 | RNA1{[moe](A)[sp].[moe]([m5C])p.[moe](T)p.[moe](G)p.d([m5C])[sp].d(T)[sp].d(T)[sp].d([m5C])[sp].d(A)[sp].d([m5C])[sp].d([m5C])[sp].d(A)[sp].d(T)[sp].d(T)[sp].[moe](T)p.[moe](T)p.[moe](G)p.[moe](A)[sp].[moe]([m5C])}$$$$ (last 3' nucleoside missing) | 1
18 | RNA1{[moe](A)[sp].[moe]([m5C])p.[moe](T)p.[moe](T)p.[moe](T)p.d(A)[sp].d(T)[sp].d(A)[sp].d(G)[sp].d(T)[sp].d(G)[sp].d(T)[sp].d(G)[sp].d(G)[sp].d(A)[sp].[moe](T)p.[moe](G)p.[moe](G)[sp].[moe](T)}$$$$ (last 3' nucleoside missing) | 6.8
19 | RNA1{[moe](A)[sp].[moe]([m5C])p.[moe](T)p.[moe](T)p.[moe](T)p.d([m5C])[sp].d(A)[sp].d(T)[sp].d([m5C])[sp].d(A)[sp].d(G)[sp].d(T)[sp].d(T)[sp].d(A)[sp].d(G)[sp].[moe](T)p.[moe]([m5C])p.[moe](A)[sp].[moe](G)}$$$$ (last 3' nucleoside missing) | 5.2
20 | RNA1{[moe](A)[sp].[moe]([m5C])p.[moe](T)p.[moe](T)p.[moe]([m5C])p.d(A)[sp].d(T)[sp].d([m5C])[sp].d(A)[sp].d(A)[sp].d(T)[sp].d(A)[sp].d(T)[sp].d(T)[sp].d(T)[sp].[moe]([m5C])p.[moe]([m5C])p.[moe]([m5C])[sp].[moe]([m5C])}$$$$ (last 3' nucleoside missing) | 0
21 | RNA1{[moe](A)[sp].[moe]([m5C])p.[moe](T)p.[moe](T)p.[moe]([m5C])p.d(T)[sp].d([m5C])[sp].d(A)[sp].d(T)[sp].d(T)[sp].d([m5C])[sp].d(T)[sp].d([m5C])[sp].d(T)[sp].d([m5C])[sp].[moe]([m5C])p.[moe](A)p.[moe]([m5C])[sp].[moe]([m5C])}$$$$ (last 3' nucleoside missing) | 0
22 | RNA1{[moe](A)[sp].[moe]([m5C])p.[moe](T)p.[moe]([m5C])p.[moe](A)p.d(T)[sp].d([m5C])[sp].d(A)[sp].d(T)[sp].d(G)[sp].d(A)[sp].d(T)[sp].d([m5C])[sp].d(T)[sp].d(T)[sp].[moe](G)p.[moe](G)p.[moe](T)[sp].[moe](A)}$$$$ (last 3' nucleoside missing) | 3
23 | RNA1{[moe](A)[sp].[moe]([m5C])p.[moe]([m5C])p.[moe](A)p.[moe](T)p.d(T)[sp].d(T)[sp].d(T)[sp].d(G)[sp].d(A)[sp].d([m5C])[sp].d([m5C])[sp].d(T)[sp].d(T)[sp].d([m5C])[sp].[moe](T)p.[moe](T)p.[moe](A)[sp].[moe](G)}$$$$ (last 3' nucleoside missing) | 0
24 | RNA1{[moe](A)[sp].[moe]([m5C])p.[moe]([m5C])p.[moe]([m5C])p.[moe]([m5C])p.d(T)[sp].d(A)[sp].d(G)[sp].d(G)[sp].d(A)[sp].d(A)[sp].d(T)[sp].d(A)[sp].d(A)[sp].d(T)[sp].[moe](G)p.[moe](T)p.[moe](T)[sp].[moe](G)}$$$$ (last 3' nucleoside missing) | 2
25 | RNA1{[moe](G)[sp].[moe](A)p.[moe](A)p.[moe](A)p.[moe]([m5C])p.d([m5C])[sp].d(A)[sp].d(G)[sp].d([m5C])[sp].d([m5C])[sp].d(A)[sp].d(G)[sp].d(G)[sp].d(T)[sp].d(G)[sp].[moe](T)p.[moe]([m5C])p.[moe](T)[sp].[moe](T)}$$$$ (last 3' nucleoside missing) | 3
26 | RNA1{[moe](G)[sp].[moe](A)p.[moe](A)p.[moe]([m5C])p.[moe](T)p.d(A)[sp].d(T)[sp].d([m5C])[sp].d([m5C])[sp].d(T)[sp].d(G)[sp].d([m5C])[sp].d(A)[sp].d(T)[sp].d([m5C])[sp].[moe]([m5C])p.[moe](G)p.[moe](A)[sp].[moe](G)}$$$$ (last 3' nucleoside missing) | 4.2
